How the values were obtained:
[1] = Necropsy and histological evaluation in mice; type: in vivo, ICR mice
Experimental: (§1) [^211At]PSMA-5 was administered intravenously to 25 mice, and its biodistribution was evaluated. For the toxicity study, three doses of [^211At]PSMA-5 (5, 12, and 35 MBq/kg, single dose) or saline were intravenously administered to 10 mice/group for the main evaluation point on day 1, and 5-mice/group for recovery evaluation on day 14, adhering to the ICH M3 (R2) guidelines. The dosage was determined based on our previous study using [^211At]NaAt. The monkeys were monitored for 24 h post-administration of [^211At]PSMA-5 (9 MBq/kg).
The brain, salivary gland, thyroid, heart, lungs, liver, kidney, adrenal gland, pancreas, spleen, thymus, stomach, small intestine, large intestine, bladder, prostate, and testes were collected on days 1 or 14 in mice and at 24 h in monkeys. Additionally, the pituitary gland, tongue, trachea, esophagus, mesenteric lymph nodes, epididymis, seminal vesicles, skin, mammary glands, spinal cord, bone, bone marrow (femur), eyeball, and optic nerve were collected from the mice. After fixation, paraffin sections were prepared and stained with hematoxylin and eosin (HE). All the specimens were evaluated by an expert in toxic pathology using an integrated fluorescence microscope (BZ-X810; Keyence Corporation. Osaka, Japan). In mice, the brain, salivary glands, heart, lungs, liver, gallbladder, spleen, kidneys, and testes were weighed according to ICH S4 guideline.

[2] = Biodistribution in cynomolgus monkey (planar/SPECT imaging, 24 h autopsy); type: in vivo; details: 9 MBq/kg i.v.
Experimental: as §1
Monkeys were anesthetized with intramuscular administration of ketamine (10 mg/kg) and xylazine (0.5 mg/kg) with isoflurane inhalation anesthesia. Planar and Single Photon Emission Computed Tomography (SPECT) imaging was performed in monkeys using a γ-camera system (E-cam, Siemens, Erlangen, Germany) immediately after administration to 1 h and at 3 and 24 h post-administration of [^211At]PSMA-5 (9 MBq/kg), targeting the X-rays emitted from the daughter nuclide ^211Po (energy window: 79 keV ± 20%). […]
Urine and feces samples were collected at each time point. […] Organ weights and radiation doses were measured using a γ-counter (model: 2480Wizard2, PerkinElmer) and γ-camera system (E-cam) by appropriate cross-calibration.

[3] = set-up: method as in PMID 35553387; details: LNCaP xenograft mice, 1MBq (53MBq/kg), 3 and 6 weeks after administration; cited from earlier work
[4] = Hematological examination in monkeys; type: in vivo, cynomolgus monkeys; details: for %Lymph / Hb / Ht / Platelet / RBC / WBC: monkeys, 9 MBq/kg i.v.
Experimental: as §1
(§2) Monkeys were anesthetized with intramuscular administration of ketamine (10 mg/kg) and xylazine (0.5 mg/kg) with isoflurane inhalation anesthesia. Planar and Single Photon Emission Computed Tomography (SPECT) imaging was performed in monkeys using a γ-camera system (E-cam, Siemens, Erlangen, Germany) immediately after administration to 1 h and at 3 and 24 h post-administration of [^211At]PSMA-5 (9 MBq/kg), targeting the X-rays emitted from the daughter nuclide ^211Po (energy window: 79 keV ± 20%). Subsequent image analysis was performed by setting the regions of interest using Osirix MD software (Version 13, Pixmeo SARL, Bernex, Switzerland) and PMOD software (Version 3.903, PMOD Technologies, Fällanden, Switzerland). Blood samples were obtained pre-administration and at 1, 3, and 24 h post-administration, followed by euthanasia via bloodletting at 24 h.
A blood cell counter was used for the measurements (CB-1010; ARKRAY, Inc., Kyoto, Japan). Red blood cell count (RBC), hemoglobin concentration (Hb), hematocrit (Ht), white blood cell count (WBC), platelet count (platelet), lymphocytes (%Lymph), monocytes (%Mon), and granulocytes (%Gra) were calculated. Plasma was analyzed using a dry clinical chemistry analyzer (Spotchem D-00 QR D-02; ARKRAY, Inc., Kyoto, Japan). The levels of aspartate aminotransferase (AST), alanine aminotransferase (ALT), gamma-glutamyl transpeptidase (γ-GTP), lactate dehydrogenase (LDH), alkaline phosphatase (ALP), creatine kinase (CK), amylase (AMY), total bilirubin (TBIL), creatinine (CRE), urea nitrogen (BUN), glucose (GLU), total protein (TP), albumin (ALB), total cholesterol (TCHO), triglyceride (TG), and electrolytes (Na, K, and Cl) were measured.

[5] = Biodistribution in ICR mice; type: in vivo
Experimental: as §1, §2
Urine and feces samples were collected at each time point. Following euthanasia, the brain, thyroid gland, salivary gland, lungs, heart, liver, kidney, spleen, pancreas, stomach, small intestine, large intestine, bladder, testes, and prostate tissues were collected. Organ weights and radiation doses were measured using a γ-counter (model: 2480Wizard2, PerkinElmer) and γ-camera system (E-cam) by appropriate cross-calibration.

[6] = mice, 12 MBq/kg, regarded as spontaneous lesion

Compound: O=C(O)CC[C@H](NC(=O)N[C@@H](CCCCNC(=O)[C@@H](Cc1ccc2ccccc2c1)NC(=O)c1ccc(CNC(=O)[C@@H](CCC(=O)O)NC(=O)[C@@H](CCC(=O)O)NC(=O)Cc2ccc([211At])cc2)cc1)C(=O)O)C(=O)O [[^211At]PSMA-5]
- gross findings during necropsy ([1]; expert evaluation): no gross abnormalities beyond spontaneous lesions
- histological changes in the thyroid, testes, and kidneys compared to the control group ([1]; mice, 5, 12 and 35 MBq/kg): no significant changes
- single-cell necrosis/apoptosis of crypt epithelial cells in pyloric glands of the stomach, duodenum, jejunum ([1]; mice, 5-35 MBq/kg, day 1): dose-dependent increase
- tingible body macrophages in white pulp of the spleen and lymphoid follicles of mesenteric lymph nodes ([1]; mice, 5-35 MBq/kg, day 1): dose-dependent increase
- incidence of increased single-cell necrosis/apoptosis in striatal epithelial and serous cells of the salivary gland ([1]; mice, 12 MBq/kg, day 1): 1/10
- incidence of atrophy of the seminal vesicles [1, 6]: 1/10
- incidence of intraperitoneal mass [1, 6]: 1/10
- incidence of cortical lymphopenia in the thymus ([1]; mice, 35 MBq/kg, day 1): 2/10
- incidence of decrease in bone marrow cells ([1]; mice, 35 MBq/kg, day 1): 9/10
- incidence of increased single-cell necrosis/apoptosis in striatal epithelial and serous cells of the salivary gland ([1]; mice, 35 MBq/kg, day 1): 7/10
- incidence of mild localized hepatocellular necrosis in the liver ([1]; mice, 35 MBq/kg, considered a spontaneously occurring lesion): 1/10
- degenerative changes in salivary glands, stomach, duodenum, jejunum, spleen, mesenteric lymph nodes, bone marrow, thymus ([1]; mice, day 14 post-administration): not observed
- cumulative fecal excretion [2]: 11.27 %ID
- cumulative urinary excretion [2]: 0.46 %ID
- kidney histology [3]: regenerated tubules were observed
- leukopenia (mainly lymphopenia) ([4]; cynomolgus monkeys, 9 MBq/kg, 24 h after administration): mild but significant leukopenia
- %Lymph ([4]; 1 h): 44.0 ± 16.0%
- Hb ([4]; 1 h): 10.3 ± 1.4 g/dL
- Ht ([4]; 1 h): 32.9 ± 4.8%
- Platelet ([4]; 1 h): 263.7 ± 33.0 10^3 cell/µL
- RBC ([4]; 1 h): 4.30 ± 0.30 10^6 cell/µL
- WBC ([4]; 1 h): 10.1 ± 0.7 10^3 cell/µL
- %Lymph ([4]; 3 h): 52.0 ± 4.5%
- Hb ([4]; 3 h): 11.2 ± 0.8 g/dL
- Ht ([4]; 3 h): 35.4 ± 2.5%
- Platelet ([4]; 3 h): 306.8 ± 41.2 10^3 cell/µL
- RBC ([4]; 3 h): 4.70 ± 0.00 10^6 cell/µL
- WBC ([4]; 3 h): 6.7 ± 1.4 10^3 cell/µL
- %Lymph ([4]; 24 h): 23.7 ± 1.1%
- Hb ([4]; 24 h): 9.9 ± 0.5 g/dL
- Ht ([4]; 24 h): 31.8 ± 1.5%
- Platelet ([4]; 24 h): 269.7 ± 60.8 10^3 cell/µL
- RBC ([4]; 24 h): 4.20 ± 0.10 10^6 cell/µL
- WBC ([4]; 24 h): 5.3 ± 0.8 10^3 cell/µL
- time of peak kidney uptake post-administration ([5]; ICR mice, 5 MBq/kg i.v.): 6 h
- time of peak thyroid gland uptake ([5]; ICR mice, 5 MBq/kg i.v.): 3 h
- cumulative fecal excretion ([5]; ICR mice, 5 MBq/kg i.v., 6 h): 3.03 ± 1.90 %ID
- cumulative urinary excretion ([5]; ICR mice, 5 MBq/kg i.v., 6 h): 4.85 ± 1.76 %ID
- cumulative fecal excretion ([5]; ICR mice, 5 MBq/kg i.v., 24 h): 24.07 ± 8.54 %ID
- cumulative urinary excretion ([5]; ICR mice, 5 MBq/kg i.v., 24 h): 18.89 ± 4.57 %ID
- uptake in the thyroid ([5]; mice, 3 h post-administration): 51 %ID/g
